Values of other authors as cited in patent US20230364135A1, “GUT-SELECTIVE SEQUESTERING AGENTS FOR THE TREATMENT AND PREVENTION OF AUTISM AND RELATED DISORDERS” (Axial Biotherapeutics, Inc., priority 2017, published 2023).

System: naïve, wild-type mice
Settings: single bolus injection intraperitoneally

CCc1ccc(OS(=O)(=O)[O-])cc1.[K+] [4-EPS, 4-ethylphenylsulfate]
core symptoms of autism spectrum disorder: did not engender any core symptoms of autism spectrum disorder
symptoms of anxiety: engendered symptoms of anxiety
